Read-outs that look alike come from different tables or passages of the source.
Experiments:
[1] = tested on: human small cell lung cancer SBC-3 cells; assay: Confocal laser scanning microscopy of intracellular localization; format: cell-based; settings: 10 μg mL−1
Description: FIG. 4 illustrates CLSM images of human small cell lung cancer SBC-3 cells incubated with ADR and PEG-p(Asp-Hyd-ADR) micelles (10 μg mL^−1). […] A series of optical sections was stacked (Z-stacked) by moving the focal plane of the instrument step-by-step through the depth of the cell.

[2] = DMEM with 10% fetal bovine serum, 24 hours, 100 μg mL−1 ADR equivalent, excitation 485 nm
tumor [3] = settings: mouse, in vivo
Description: (§1) Cancer treatment efficacy of the pH-sensitive micelles was evaluated by comparing the therapeutic windows of small molecule drugs (doxorubicin) and the doxorubicin-conjugated micelles.
(§2) The CDF1 mice (female, n=6), when the tumor volume reached about 100 mm^3, were injected with DOX or the micelles in a volume of 0.1 mL/10 g body weight for the experiments. The dose was either 10 mg/kg for DOX or the micelles (DOX equivalent).
(§3) Cancer treatment efficacy of the pH-sensitive micelles was evaluated by comparing the therapeutic windows of small molecule drugs (doxorubicin) and the doxorubicin-conjugated micelles. Therapeutic windows were determined based on the ratio of ED50 to TD.

[4] = Biodistribution and plasma levels in tumor-bearing mice; settings: after 10 hours; 10 mg/kg, CDF1 mice
Description: as §2

tumor [5] = assay: Cancer treatment efficacy and toxicity in tumor-bearing mice (Table 2, therapeutic window); settings: for Complete Cure / Toxic Death: mice; for Complete Cure: cured/animals; for Toxic Death: deaths/animals
Description: as §1, §2, §3

[6] = tested on: human small cell lung cancer SBC-3 cells; settings: different ADR concentrations and exposure times
Source text: As a system releasing bioactive molecules, the micelles are required to maintain the ability of the loaded ADR to suppresses cell growth by binding with DNA strands in the cell nucleus.

Row | Compound | fluorescence intensity in cells ([1]; after 1 hour exposure) | intracellular localization of fluorescence ([1]; after 24 hours incubation) | fluorescence intensity at 590 nm [2] | Weight change on day 30 (%) (tumor [3]; 5 mg/kg) | Weight change on day 30 (%) (tumor [3]; 10 mg/kg) | dose remained in the blood [4] | Complete Cure (tumor [5]; dose 5 mg/kg) | Toxic Death (tumor [5]; dose 5 mg/kg) | Complete Cure (tumor [5]; dose 10 mg/kg) | Toxic Death (tumor [5]; dose 10 mg/kg) | fluorescence intensity in cells ([1]; after 24 hours incubation) | growth-inhibition effect [6] | therapeutic window compared to standard doxorubicin administration (tumor [5]; based on treatment-to-control (T/C) ratio, ratio of ED50 to TD) | Complete Cure (tumor [5]; dose 20 mg/kg) | Complete Cure (tumor [5]; dose 40 mg/kg)
1 | COc1cccc2c1C(=O)c1c(O)c3c(c(O)c1C2=O)C[C@@](O)(C(=O)CO)C[C@@H]3O[C@H]1C[C@H](N)[C@H](O)[C@H](C)O1 [DOX, doxorubicin] | increase in fluorescence intensity | only accumulated in cell nuclei | intense fluorescence | −13.35 ± 0.59 | −16.84 ± 1.26 | almost none | 0/6 | 0/6 | 1/6 | 0/6 |  |  |  |  | 
2 | poly(ethylene glycol)poly(aspartate-hydrazone-adriamycin) [DOX-Micelle] | no such increase was detected | dot-shaped within the cytoplasm |  |  |  |  | 0/6 |  | 0/6 |  | considerable fluorescence change | gradually approach those of free ADR | broader therapeutic window | 2/6 | 3/6

From patent US20080248097A1, “POLYMERIC MICELLES FOR COMBINATION DRUG DELIVERY” (priority 2007, published 2008)
